Where “and” joins values, the source holds several entries; their conditions need not be identical. Identical values can stand only once.
Columns and labels:
[1] = for mass density: Liquid; for Normal melting temperature: Crystal, visual observation
[2] = xn = mol fraction of the nth substance listed; details: 101 kPa, Liquid

c1ccccc1 [benzene]
[1], 101 kPa
Details | mass density [kg/m3]
298.15 K | 873.63
308.15 K | 862.91
318.15 K | 852.12
328.15 K | 841.24
338.15 K | 830.26

Details | Normal melting temperature [°C]
[1] | 5.5

c1ccccc1 [benzene] + c1cc[nH]c1
[2], x2 = 0
Details | mass density [kg/m3]
298.15 K | 873.63
308.15 K | 862.91
318.15 K | 852.12
328.15 K | 841.24
338.15 K | 830.26

C1CCCCC1 [cyclohexane]
[1], 101 kPa
Details | mass density [kg/m3]
298.15 K | 773.87
308.15 K | 764.38
318.15 K | 754.77
328.15 K | 745.04
338.15 K | 735.18

Details | Normal melting temperature [°C]
[1] | 7

C1CCCCC1 [cyclohexane] + c1cc[nH]c1
[2], x2 = 0
Details | mass density [kg/m3]
298.15 K | 773.87
308.15 K | 764.38
318.15 K | 754.77
328.15 K | 745.04
338.15 K | 735.18

c1cc[nH]c1 [pyrrole]
[1], Vibrating tube method
Details | mass density [kg/m3]
298.15 K, 100 kPa | 965.54
298.15 K, 101 kPa | 965.54
298.15 K, 500 kPa | 965.71
298.15 K, 1000 kPa | 966
298.15 K, 1500 kPa | 966.3
298.15 K, 2000 kPa | 966.59
298.15 K, 2500 kPa | 966.9
298.15 K, 3000 kPa | 967.19
298.15 K, 4000 kPa | 967.77
298.15 K, 5000 kPa | 968.35
308.15 K, 101 kPa | 956.83
318.15 K, 101 kPa | 948.03
328.15 K, 101 kPa | 939.14
338.15 K, 101 kPa | 930.13

Details | Normal melting temperature
[1] | -23.5 °C and -23.4 °C

c1cc[nH]c1 [pyrrole] + C1CCCCC1
mass density [kg/m3], [2]
Details | 298.15 K | 308.15 K | 318.15 K | 328.15 K | 338.15 K
x1 = 0.0749 | 786.03 | 776.43 | 766.72 | 756.88 | 746.91
x1 = 0.1409 | 797.78 | 788.17 | 778.44 | 768.58 | 758.6
x1 = 0.1864 | 805.48 | 795.87 | 786.14 | 776.3 | 766.32
x1 = 0.2637 | 819.91 | 810.32 | 800.64 | 790.86 | 780.96
x1 = 0.3549 | 837.14 | 827.63 | 818.03 | 808.35 | 798.62
x1 = 0.4446 | 854.23 | 844.82 | 835.34 | 825.81 | 816.3
x1 = 0.5058 | 866.13 | 856.8 | 847.4 | 837.91 | 828.38
x1 = 0.6032 | 884.76 | 875.58 | 866.33 | 856.97 | 847.56
x1 = 0.6712 | 898.56 | 889.48 | 880.32 | 870.17 | 861.68
x1 = 0.7183 | 908.28 | 899.28 | 890.2 | 881.03 | 871.79
x1 = 0.761 | 916.78 | 907.83 | 898.79 | 889.65 | 880.41
x1 = 0.8376 | 932.14 | 923.29 | 914.35 | 905.29 | 896.1
x1 = 0.8824 | 941.41 | 932.59 | 923.7 | 914.69 | 905.55
x1 = 0.9424 | 953.79 | 945.05 | 936.21 | 927.25 | 918.18
x1 = 1 | 965.54 | 956.83 | 948.03 | 939.14 | 930.13

c1cc[nH]c1 [pyrrole] + c1ccccc1
mass density [kg/m3], [2]
Details | 298.15 K | 308.15 K | 318.15 K | 328.15 K | 338.15 K
x1 = 0.0447 | 878.11 | 867.49 | 856.79 | 846 | 835.1
x1 = 0.1287 | 886.6 | 876.17 | 865.66 | 855.06 | 844.34
x1 = 0.2144 | 894.89 | 884.68 | 874.36 | 863.95 | 853.41
x1 = 0.3142 | 904.35 | 894.36 | 884.28 | 874.1 | 863.91
x1 = 0.3916 | 911.83 | 902.01 | 892.11 | 882.08 | 871.95
x1 = 0.503 | 922.04 | 912.44 | 902.77 | 892.98 | 883.08
x1 = 0.5973 | 930.57 | 921.15 | 911.66 | 902.07 | 892.35
x1 = 0.6693 | 936.98 | 927.73 | 918.38 | 908.92 | 899.34
x1 = 0.7371 | 942.99 | 933.85 | 924.62 | 915.29 | 905.82
x1 = 0.8207 | 950.33 | 941.34 | 932.26 | 923.07 | 913.74
x1 = 0.8732 | 954.72 | 945.81 | 936.8 | 927.7 | 918.46
x1 = 0.9214 | 958.96 | 950.13 | 941.21 | 932.19 | 923.04
x1 = 0.979 | 963.65 | 954.92 | 946.08 | 937.17 | 928.12
x1 = 1 | 965.54 | 956.83 | 948.03 | 939.14 | 930.13
